“And” between values parts separate entries of the source, which are not always exact repeats. Equal values may be shown once.
Experiments:
CYP1A1 mRNA = CYP1A1 mRNA expression in primary human hepatocytes; assay type: cell-based; conditions: human
[1] = tested on: CYP1A1 mRNA in primary human hepatocytes; test: as above; assay type: cell-based
AhR = biological target: T1, AhR (Homo sapiens, UniProt P35869); test: Gene reporter assay, transcriptional activity of AhR in AZ-AHR reporter cells; conditions: 10 µM and 50 µM, 24 h
T1 sequence (P35869 11-848): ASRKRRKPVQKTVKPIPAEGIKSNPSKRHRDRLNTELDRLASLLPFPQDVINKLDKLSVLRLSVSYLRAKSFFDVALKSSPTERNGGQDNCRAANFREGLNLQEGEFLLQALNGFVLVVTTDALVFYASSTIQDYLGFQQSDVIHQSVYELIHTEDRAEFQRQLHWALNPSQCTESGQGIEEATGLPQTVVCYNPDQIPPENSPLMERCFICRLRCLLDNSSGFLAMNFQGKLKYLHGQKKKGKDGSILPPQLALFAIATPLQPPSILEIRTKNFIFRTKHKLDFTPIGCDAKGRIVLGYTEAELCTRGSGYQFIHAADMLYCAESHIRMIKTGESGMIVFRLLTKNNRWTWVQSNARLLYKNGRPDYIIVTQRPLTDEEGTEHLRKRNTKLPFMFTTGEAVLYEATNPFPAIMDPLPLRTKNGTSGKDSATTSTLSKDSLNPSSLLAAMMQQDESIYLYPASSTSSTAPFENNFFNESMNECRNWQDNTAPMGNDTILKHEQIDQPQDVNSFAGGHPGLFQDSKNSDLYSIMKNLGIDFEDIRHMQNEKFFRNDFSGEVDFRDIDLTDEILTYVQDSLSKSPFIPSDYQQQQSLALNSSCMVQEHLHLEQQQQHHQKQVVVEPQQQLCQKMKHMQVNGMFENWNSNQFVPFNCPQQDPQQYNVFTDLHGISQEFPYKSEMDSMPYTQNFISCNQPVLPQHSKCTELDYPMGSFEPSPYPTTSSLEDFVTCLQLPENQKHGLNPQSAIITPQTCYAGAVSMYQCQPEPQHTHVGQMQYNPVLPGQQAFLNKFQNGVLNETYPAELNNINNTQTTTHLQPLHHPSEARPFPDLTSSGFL

[2] = tested on: CYP1A1 protein in primary human hepatocytes; test: CYP1A1 protein in primary human hepatocytes
CYP1A1 [3] = biological target: T2, CYP1A1 (Homo sapiens, UniProt P04798); test: Enzyme activity of CYP1A1 in human liver microsomes; assay type: biochemical; conditions: 100 µM
T2 sequence (P04798 1-512): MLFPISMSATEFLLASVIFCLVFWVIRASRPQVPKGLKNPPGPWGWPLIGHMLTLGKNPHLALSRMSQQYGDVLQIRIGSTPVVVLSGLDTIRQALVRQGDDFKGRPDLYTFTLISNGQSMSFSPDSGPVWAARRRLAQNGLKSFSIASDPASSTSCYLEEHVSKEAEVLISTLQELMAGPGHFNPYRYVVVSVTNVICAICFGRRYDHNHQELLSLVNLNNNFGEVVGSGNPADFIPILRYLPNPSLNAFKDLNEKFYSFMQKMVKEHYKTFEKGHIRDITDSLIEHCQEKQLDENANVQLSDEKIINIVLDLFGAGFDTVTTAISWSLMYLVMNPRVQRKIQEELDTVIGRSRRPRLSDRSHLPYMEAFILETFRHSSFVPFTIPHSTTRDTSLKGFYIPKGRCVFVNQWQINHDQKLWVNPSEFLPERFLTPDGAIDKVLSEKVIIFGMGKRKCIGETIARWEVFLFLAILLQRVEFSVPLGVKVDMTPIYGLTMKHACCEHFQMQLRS

[4] = tested on: CYP1A1 protein in LS174T cells; test: CYP1A1 protein in LS174T cells; assay type: cell-based, human; conditions: TCDD 5 nM, 48 h
[5] = tested on: CYP1A1 mRNA in HepG2 cells; test: CYP1A1 mRNA expression in HepG2 cells; conditions: HepG2, TCDD 5 nM, 24 h, two independent experiments
[6] = tested on: CYP1A1 protein in HepG2 cells; test: CYP1A1 protein in HepG2 cells; assay type: cell-based, human; conditions: HepG2, TCDD 5 nM, 48 h
[7] = tested on: CYP1A1 mRNA in LS174T cells; test: CYP1A1 mRNA expression in LS174T cells; conditions: TCDD 5 nM, 24 h, two independent experiments
CYP1A1 [8] = conditions: read-out: IC50, inhibition of CYP1A1; aglycons (anthocyanidins); ref Kamenickova et al. 2013; cited from earlier work
[9] = primary human hepatocytes (culture LH48 as printed)
[10] = male, primary human hepatocytes (culture LH45)
[11] = male, primary human hepatocytes (culture LH46)
[12] = male, primary human hepatocytes (culture LH47)
[13] = hepatocyte culture LH45, 10 µM, 24 h
[14] = hepatocyte culture LH45, 50 µM, 24 h
[15] = hepatocyte culture LH46, 10 µM, 24 h
[16] = hepatocyte culture LH46, 50 µM, 24 h
[17] = hepatocyte culture LH47, 50 µM, 24 h
[18] = hepatocyte culture LH48 (so in the source), 50 µM, 24 h

`OC[C@H]1O[C@@H](Oc2cc3c(O)cc(O)cc3[o+]c2-c2ccc(O)c(O)c2)[C@H](O)[C@@H](O)[C@@H]1O` [CYA-1, cyanidin-3-O-glucoside chloride] showed a fold induction at 24 h, 50 µM (CYP1A1 mRNA; [9]) of 0.03, a fold induction at 24 h, 10 µM (CYP1A1 mRNA; [10]) of 1.22 ± 0.04 and a fold induction at 24 h, 50 µM (CYP1A1 mRNA; [10]) of 0.73 ± 0.22. It also gave a fold induction at 24 h, 10 µM (CYP1A1 mRNA; [11]) of 1.14 ± 0.2, a fold induction at 24 h, 50 µM (CYP1A1 mRNA; [11]) of 1.04 ± 0.12 and a fold induction at 24 h, 50 µM (CYP1A1 mRNA; [12]) of 0.28 ± 0.01.

Work on `COc1cc(-c2[o+]c3cc(O)cc(O)c3cc2O[C@@H]2O[C@H](CO)[C@@H](O)[C@H](O)[C@H]2O)cc(OC)c1O` [MAL-1, malvidin-3-O-glucoside chloride] yielded a fold induction at 24 h, 50 µM (CYP1A1 mRNA; [9]) of 0.29 ± 0.03, a fold induction at 24 h, 10 µM (CYP1A1 mRNA; [10]) of 1.13 ± 0.35 and a fold induction at 24 h, 50 µM (CYP1A1 mRNA; [10]) of 0.93 ± 0.11. It also gave a fold induction at 24 h, 10 µM (CYP1A1 mRNA; [11]) of 2.34 ± 0.25, a fold induction at 24 h, 50 µM (CYP1A1 mRNA; [11]) of 1.56 ± 0.23 and a fold induction at 24 h, 50 µM (CYP1A1 mRNA; [12]) of 0.14 ± 0.13.

With `COc1cc(-c2[o+]c3cc(O)cc(O[C@@H]4O[C@H](CO)[C@@H](O)[C@H](O)[C@H]4O)c3cc2O[C@@H]2O[C@H](CO)[C@@H](O)[C@H](O)[C@H]2O)cc(OC)c1O.[Cl-]` [MAL-2, malvidin-3,5-di-O-glucoside chloride] the “CYP1A1 mRNA fold induction over the vehicle-treated cells, LH45” value (“CYP1A1 mRNA fold induction … LH45” below) [1, 13] was 1.14 ± 0.28 fold, the “CYP1A1 mRNA fold induction … LH45” value [1, 14] was 0.44 ± 0.01 fold and the “CYP1A1 mRNA fold induction over the vehicle-treated cells, LH46” value (“CYP1A1 mRNA fold induction … LH46” for short) [1, 15] was 1.72 ± 0.39 fold. For the same compound, the “CYP1A1 mRNA fold induction … LH46” value [1, 16] was 1.64 ± 0.38 fold, the “CYP1A1 mRNA fold induction over the vehicle-treated cells, LH47” value (“CYP1A1 mRNA fold induction … LH47” for short) [1, 17] was 0.56 ± 0.07 fold and the “CYP1A1 mRNA fold induction over the vehicle-treated cells, LH48” value (“CYP1A1 mRNA fold induction … LH48” for short) [1, 18] was 0.93 ± 0.09 fold.

For `COc1cc(-c2[o+]c3cc(O)cc(O)c3cc2O[C@@H]2O[C@H](CO)[C@H](O)[C@H](O)[C@H]2O)cc(OC)c1O.[Cl-]` [MAL-3, malvidin-3-O-galactoside chloride], the “CYP1A1 mRNA fold induction … LH45” value [1, 13] was 0.12 ± 0.00 fold, the “CYP1A1 mRNA fold induction … LH45” value [1, 14] was 0.28 ± 0.04 fold and the “CYP1A1 mRNA fold induction … LH46” value [1, 15] was 0.87 ± 0.02 fold. For the same compound, the “CYP1A1 mRNA fold induction … LH46” value [1, 16] was 1.32 ± 0.05 fold, the “CYP1A1 mRNA fold induction … LH47” value [1, 17] was 0.54 ± 0.02 fold and the “CYP1A1 mRNA fold induction … LH48” value [1, 18] was 0.33 ± 0.02 fold.

For `Oc1cc(O)c2c(c1)O[C@@]1(c3ccc(O)c(O)c3)Oc3cc(O)c4c(c3[C@@H]2[C@H]1O)O[C@H](c1ccc(O)c(O)c1)[C@H](O)C4` [PAC, proanthocyanidin A2], the “induction of luciferase activity” value (AhR) was “No significant induction”.

For `OC[C@H]1O[C@@H](Oc2cc3c(O[C@@H]4O[C@H](CO)[C@@H](O)[C@H](O)[C@H]4O)cc(O)cc3[o+]c2-c2ccc(O)cc2)[C@H](O)[C@@H](O)[C@@H]1O` [PEL-1, pelargonidin-3,5-di-O-glucoside chloride], the “CYP1A1 mRNA fold induction … LH45” value ([1]; 10 µM) was 0.70 ± 0.17 fold, the “CYP1A1 mRNA fold induction … LH46” value ([1]; 10 µM) was 1.49 ± 0.10 fold and the “CYP1A1 mRNA fold induction … LH45” value ([1]; 50 µM) was 1.17 ± 0.14 fold. The “CYP1A1 mRNA fold induction … LH46” value ([1]; 50 µM) was 2.21 ± 0.66 fold, the “CYP1A1 mRNA fold induction … LH47” value ([1]; 50 µM) was 0.59 ± 0.52 fold and the “CYP1A1 mRNA fold induction … LH48” value ([1]; 50 µM) was 0.98 ± 0.27 fold.

With `CC1OC(OCC2OC(Oc3cc4c(O)cc(O)cc4[o+]c3-c3ccc(O)cc3)C(O)C(O)C2O)C(O)C(O)C1O.[Cl-]` (stereo not drawn) [PEL-2, pelargonidin-3-O-rutinoside chloride] the “CYP1A1 mRNA fold induction … LH45” value [1, 13] was 0.87 ± 0.04 fold, the “CYP1A1 mRNA fold induction … LH45” value [1, 14] was 0.24 ± 0.01 fold and the “CYP1A1 mRNA fold induction … LH46” value [1, 15] was 2.66 ± 0.20 fold. For the same compound, the “CYP1A1 mRNA fold induction … LH46” value [1, 16] was 2.39 ± 0.22 fold, the “CYP1A1 mRNA fold induction … LH47” value [1, 17] was 0.61 ± 0.01 fold and the “CYP1A1 mRNA fold induction … LH48” value [1, 18] was 0.60 ± 0.17 fold. The “induction of CYP1A1 mRNA” value ([1]; hepatocytes) was “Neither compound induced”, the “induction of luciferase activity” value (AhR) was “concentration-dependent induction” and the “induction of CYP1A1 protein” value ([2]; four different primary human hepatocytes cultures) was “Neither compound induced”. The “CYP1A1 activity remaining, % of the initial activity (without anthocyanin)” value (CYP1A1 [3]) was 79%.

With `COc1cc(-c2[o+]c3cc(O)cc(O)c3cc2O[C@@H]2O[C@H](CO)[C@@H](O)[C@H](O)[C@H]2O)ccc1O.[Cl-]` [PEO-1, peonidin-3-O-glucoside chloride] the “CYP1A1 mRNA fold induction … LH45” value [1, 13] was 0.21 ± 0.03 fold, the “CYP1A1 mRNA fold induction … LH45” value [1, 14] was 0.80 ± 0.22 fold and the “CYP1A1 mRNA fold induction … LH46” value [1, 15] was 2.14 ± 0.18 fold. For the same compound, the “CYP1A1 mRNA fold induction … LH46” value [1, 16] was 2.48 ± 0.57 fold, the “CYP1A1 mRNA fold induction … LH47” value [1, 17] was 0.51 ± 0.07 fold and the “CYP1A1 mRNA fold induction … LH48” value [1, 18] was 0.08 ± 0.03 fold.

For `Clc1cc2c(cc1Cl)Oc1cc(Cl)c(Cl)cc1O2` [TCDD, 2,3,7,8-Tetrachlorodibenzo-p-dioxin], the “levels of CYP1A1 protein” value [4] was “strongly induced”, the “CYP1A1 mRNA fold induction … LH45” value ([1]; hepatocyte culture LH45, TCDD 5 nM, 24 h) was 125.4 ± 17.7 fold and the “CYP1A1 mRNA fold induction … LH47” value ([1]; hepatocyte culture LH47, TCDD 5 nM, 24 h) was 104.7 ± 13.4 fold. The “magnitude of induction of CYP1A1 mRNA, LH49” value ([1]; hepatocyte culture LH49, TCDD, 24 h) was 71 fold, the “induction of CYP1A1 mRNA” value [5] was 322 fold and 216 fold and the “levels of CYP1A1 protein” value [6] was “strongly induced”. The “levels of CYP1A1 protein” value ([2]; four human hepatocytes cultures, TCDD 5 nM, 48 h) was “strongly induced” and the “induction of CYP1A1 mRNA” value [7] was 1003 fold and 724 fold.

For `Oc1cc(O)c2cc(O)c(-c3cc(O)c(O)c(O)c3)[o+]c2c1` [delphinidin], the IC50 (CYP1A1 [8]) is given as 77 µM.

In the case of `Oc1ccc(-c2[o+]c3cc(O)cc(O)c3cc2O)cc1` [pelargonidin], the IC50 (CYP1A1 [8]) is listed as 33 µM.
